Data: US20230312528A1, “2-OXO-IMIDAZOLIDINE-4-CARBOXAMIDES AS NAV1.8 INHIBITORS” (Merck Sharp & Dohme LLC, priority 2020, published 2023)

Target: human NaV1.8 (Homo sapiens (Human), UniProt Q9Y5Y9)
Test: Nav1.8 Qube automated patch-clamp assay
Assay type: cell-based
Settings: human NaV1.8 stably expressed in HEK 293 cells; automated 384-well patch-clamp; resting or inactivated state not specified
Method in brief: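 IC50 values from Hill-equation fits of offline percent inhibition: the 1st pulse gave resting and the 10th pulse inactivated-state inhibition. Stimulus was a 10 s, 1 Hz train to 10 mV (holding −90 mV, −67 mV interpulse) applied at room temperature to HEK293 cells stably expressing human NaV1.8 (Qube).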

human NaV1.8, sequence (Q9Y5Y9 whole entry): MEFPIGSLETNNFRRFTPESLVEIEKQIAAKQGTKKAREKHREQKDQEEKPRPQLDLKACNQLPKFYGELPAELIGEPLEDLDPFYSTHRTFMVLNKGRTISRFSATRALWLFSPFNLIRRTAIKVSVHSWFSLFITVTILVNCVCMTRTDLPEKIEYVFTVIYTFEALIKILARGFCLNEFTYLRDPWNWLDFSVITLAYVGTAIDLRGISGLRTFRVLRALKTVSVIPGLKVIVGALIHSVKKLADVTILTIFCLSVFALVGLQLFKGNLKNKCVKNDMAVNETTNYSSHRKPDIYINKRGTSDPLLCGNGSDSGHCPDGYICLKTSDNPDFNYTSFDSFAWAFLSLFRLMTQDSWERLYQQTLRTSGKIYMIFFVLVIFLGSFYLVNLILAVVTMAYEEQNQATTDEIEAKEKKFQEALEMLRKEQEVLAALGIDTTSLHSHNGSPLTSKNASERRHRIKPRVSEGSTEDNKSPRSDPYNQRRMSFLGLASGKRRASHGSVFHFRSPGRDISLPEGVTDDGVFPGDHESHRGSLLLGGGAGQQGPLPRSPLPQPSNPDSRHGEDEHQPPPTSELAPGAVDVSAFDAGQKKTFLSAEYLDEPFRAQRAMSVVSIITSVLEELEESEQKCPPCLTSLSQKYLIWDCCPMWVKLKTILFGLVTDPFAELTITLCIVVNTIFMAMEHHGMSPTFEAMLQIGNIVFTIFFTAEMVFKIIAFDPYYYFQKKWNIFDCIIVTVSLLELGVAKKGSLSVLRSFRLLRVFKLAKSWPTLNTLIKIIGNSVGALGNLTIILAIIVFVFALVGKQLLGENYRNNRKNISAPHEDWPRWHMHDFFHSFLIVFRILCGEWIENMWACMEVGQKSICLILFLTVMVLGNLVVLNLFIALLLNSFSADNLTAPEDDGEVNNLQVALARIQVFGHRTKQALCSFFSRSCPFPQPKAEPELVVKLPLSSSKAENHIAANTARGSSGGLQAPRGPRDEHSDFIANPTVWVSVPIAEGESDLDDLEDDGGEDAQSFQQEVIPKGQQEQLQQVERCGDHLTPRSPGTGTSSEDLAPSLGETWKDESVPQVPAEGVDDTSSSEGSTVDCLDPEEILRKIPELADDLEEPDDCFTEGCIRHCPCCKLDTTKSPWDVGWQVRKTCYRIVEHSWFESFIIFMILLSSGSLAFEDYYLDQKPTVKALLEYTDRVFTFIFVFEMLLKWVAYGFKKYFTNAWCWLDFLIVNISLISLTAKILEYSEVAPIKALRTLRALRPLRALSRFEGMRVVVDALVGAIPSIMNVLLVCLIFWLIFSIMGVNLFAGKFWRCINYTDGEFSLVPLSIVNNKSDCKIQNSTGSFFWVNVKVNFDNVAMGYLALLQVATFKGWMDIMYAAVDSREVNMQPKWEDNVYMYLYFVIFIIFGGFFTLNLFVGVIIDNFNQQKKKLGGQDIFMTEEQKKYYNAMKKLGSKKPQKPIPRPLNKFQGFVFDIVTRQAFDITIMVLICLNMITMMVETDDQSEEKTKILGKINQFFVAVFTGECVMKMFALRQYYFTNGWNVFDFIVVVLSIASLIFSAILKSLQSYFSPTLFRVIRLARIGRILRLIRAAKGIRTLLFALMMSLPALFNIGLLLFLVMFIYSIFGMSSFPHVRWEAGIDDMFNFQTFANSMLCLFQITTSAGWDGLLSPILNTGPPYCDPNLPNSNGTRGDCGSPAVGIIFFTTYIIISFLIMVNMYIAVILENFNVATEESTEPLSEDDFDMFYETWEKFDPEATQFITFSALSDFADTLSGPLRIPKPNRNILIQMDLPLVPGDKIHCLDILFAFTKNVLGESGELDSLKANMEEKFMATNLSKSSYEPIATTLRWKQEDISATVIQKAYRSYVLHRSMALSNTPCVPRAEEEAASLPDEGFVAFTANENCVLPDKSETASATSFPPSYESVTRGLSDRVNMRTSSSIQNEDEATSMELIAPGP

Row | IC50 [nM] | Compound
1 | 64 | O=C1NC[C@@H](C(=O)NC(c2cnc(OCC(F)(F)F)s2)c2ccc(F)c(Cl)c2F)N1 (single isomer, unassigned) [Example 35B, (S)-N-((R or S)-(3-chloro-2,4-difluorophenyl)(2-(2,2,2-trifluoroethoxy)thiazol-5-yl)methyl)-2-oxoimidazolidine-4-carboxamide]
2 | 12 | O=C1NC[C@@H](C(=O)NC(c2cnc(OC(F)F)s2)c2ccc(F)c(Cl)c2F)N1 (single isomer, unassigned) [Example 36A, (S)-N-((R or S)-(3-chloro-2,4-difluorophenyl)(2-(difluoromethoxy)thiazol-5-yl)methyl)-2-oxoimidazolidine-4-carboxamide]
3 | 186 | O=C1NC[C@@H](C(=O)NC(c2cnc(OC(F)F)s2)c2ccc(F)c(Cl)c2F)N1 (single isomer, unassigned) [Example 36B, (S)-N-((R or S)-(3-chloro-2,4-difluorophenyl)(2-(difluoromethoxy)thiazol-5-yl)methyl)-2-oxoimidazolidine-4-carboxamide]

Second part, the compound before the results:

Row | Compound | IC50 [nM]
4 | O=C1NC[C@@H](C(=O)NC(c2cnc(OCC(F)(F)F)s2)c2ccc(F)c(Cl)c2F)N1 (single isomer, unassigned) [Example 35A, (S)-N-((R or S)-(3-chloro-2,4-difluorophenyl)(2-(2,2,2-trifluoroethoxy)thiazol-5-yl)methyl)-2-oxoimidazolidine-4-carboxamide] | 2.4
5 | O=C1NC[C@@H](C(=O)NC(c2ccc(F)c(Cl)c2F)C2CC3(C2)CC(F)(F)C3)N1 (single isomer, unassigned) [Example 37, (S)-N-((R or S)-(3-chloro-2,4-difluorophenyl)(6,6-difluorospiro[3.3]heptan-2-yl)methyl)-2-oxoimidazolidine-4-carboxamide] | 11
6 | O=C1NC[C@@H](C(=O)NC(c2cnc(C(F)(F)F)c(Cl)c2)c2ccc(F)c(Cl)c2F)N1 (single isomer, unassigned) [Example 38, (S)-N-((R or S)-(3-chloro-2,4-difluorophenyl)(5-chloro-6-(trifluoromethyl)pyridin-3-yl)methyl)-2-oxoimidazolidine-4-carboxamide] | 1.1
7 | O=C1NC[C@@H](C(=O)NC(c2ccc(OC(F)(F)F)c(Cl)c2)c2ccc(OC(F)(F)F)cn2)N1 (single isomer, unassigned) [Example 39A, (S)—N—((R or S)-(3-chloro-4-(trifluoromethoxy)phenyl)(5-(trifluoromethoxy)pyridin-2-yl)methyl)-2-oxoimidazolidine-4-carboxamide] | 1.3
8 | O=C1NC[C@@H](C(=O)NC(c2ccc(OC(F)(F)F)c(Cl)c2)c2ccc(OC(F)(F)F)cn2)N1 (single isomer, unassigned) [Example 39B, (S)—N—((R or S)-(3-chloro-4-(trifluoromethoxy)phenyl)(5-(trifluoromethoxy)pyridin-2-yl)methyl)-2-oxoimidazolidine-4-carboxamide] | 2.5
9 | O=C1NC[C@@H](C(=O)NC(c2ccc(OC(F)(F)F)cc2)c2ccc(Cl)c(C3CC3)n2)N1 (single isomer, unassigned) [Example 40A, (S)-N-((R or S)-(5-chloro-6-cyclopropylpyridin-2-yl)(4-(trifluoromethoxy)phenyl)methyl)-2-oxoimidazolidine-4-carboxamide] | 21
10 | O=C1NC[C@@H](C(=O)NC(c2ccc(OC(F)(F)F)cc2)c2ccc(Cl)c(C3CC3)n2)N1 (single isomer, unassigned) [Example 40B, (S)-N-((R or S)-(5-chloro-6-cyclopropylpyridin-2-yl)(4-(trifluoromethoxy)phenyl)methyl)-2-oxoimidazolidine-4-carboxamide] | 3.5
11 | O=C1NC[C@@H](C(=O)NC(c2ccc(OC(F)(F)F)c(Cl)c2)c2cnn(C(F)(F)F)c2)N1 (single isomer, unassigned) [Example 41A, (S)—N—((R or S)-(3-chloro-4-(trifluoromethoxy)phenyl)(1-(trifluoromethyl)-1H-pyrazol-4-yl)-l3-methyl)-2-oxoimidazolidine-4-carboxamide] | 1.7
